Literature values, collected in patent US20120263714A1, “SUBSTITUTED HALOPHENOXYBENZAMIDE DERIVATIVES” (BAYER INTELLECTUAL PROPERTY GMBH, priority 2009, published 2012).

Experiments:
MEK1/2 = MEK1/2 inhibitor, background statement
colon cancer = conditions: oral treatment, mouse models

## O=C(NOCC1CC1)c1ccc(F)c(F)c1Nc1ccc(I)cc1Cl [CI-1040]
MEK1/2
  IC50: low nanomolar range
Colon cancer
  colon cancer growth in vivo: inhibit colon cancer growth in vivo
